One series deals with T1, hNTS1R (Homo sapiens, UniProt P30989).
T1 construct: at hNTS1R expressing intact human HT-29 colon carcinoma cells; endogenous in cells; host or cells: HT-29 human colon carcinoma cells (intact)
Kind of series: Radioligand competition binding with [^3H]UR-MK300 at intact HT-29 cells. Conditions: [^3H]UR-MK300 (Kd = […], c = 1 nM), 23 °C. As for the experimental part: Unspecific binding was subtracted from total binding to obtain specific binding. Data analysis was performed by plotting % specifically bound radioligand (100% = specifically bound radioligand in the absence of competitor) over log(concentration of competitor) followed by a four-parameter logistic fit (SigmaPlot 12.5, Systat Software). […] The Ki values from individual experiments were transformed to pKi values, followed by the calculation of mean pKi values ± SEM.

Series [1] in a line: In vitro stability in human plasma/PBS (1:2 v/v) at 37 °C. The series is classed as in vitro ADME. The note with it: human blood plasma/PBS (1:2 v/v), read-out: % intact peptide in human plasma after the given incubation time; for remaining at 1 h, 100 µM: pH 7.4, 1 h; for remaining at 24 h, 100 µM: pH 7.4, 24 h; for remaining at 6 h, 100 µM: pH 7.4, 6 h; for remaining at 48 h, 100 µM: pH 7.4, 48 h. As for the experimental part:
The metabolic stabilities of 11–14, 16 and 18–21 (cf. Table 2) were investigated in human blood plasma/PBS (136.9 mM NaCl, 2.68 mM KCl, 5.62 mM Na2HPO4, 1.09 mM NaH2PO4 and 1.47 mM KH2PO4) pH 7.4 (1:2, v/v) according to a described procedure[13] with the following modifications: 5 mM stock solutions in EtOH/0.04% aq TFA (30:70 v/v) (11–13), MeCN/0.025% aq TFA (30:70 v/v) (14), MeCN/0.04% aq TFA (30:70 v/v) (16, 19 and 21) or EtOH/H2O (40:60 v/v) (18, 20) were used for the addition of the peptides to plasma/PBS (1:2 v/v). As the RP-HPLC purity of 1-Methyl-D-Trp (internal standard, IS) was < 95% (data not shown), the compound was purified by preparative HPLC to give a purity of > 99%. The concentration of the peptides in plasma/PBS (1:2 v/v) was 80 and 4 µM (recovery determination) or 100 µM (stability tests). The obtained recoveries and the recovery ratios (peptide/internal standard) are summarized in Supplementary Table S1. Data analysis was based on UV detection at 220 nm. Additionally, the stability of compound 21 was investigated in mouse plasma/PBS (1:2 v/v) using the same procedure as described above for human plasma. Mouse plasma was obtained by the collection of blood from anaesthetized mice via cardiac puncture using a syringe that was rinsed with sodium heparin (25,000 I.E., Ratiopharm, Ulm, Germany). The heparinized blood was transferred into a 2-mL reaction vessel, followed by centrifugation (1200 g, 4 °C, 10 min). The supernatants were pooled, centrifuged again (1200 g, 4 °C, 10 min), the plasma was aliquoted and stored at − 80 °C. The concentration of 21 in plasma/PBS (1:2 v/v) was 80 and 4 μM (recovery determination) or 100 μM (stability tests). The obtained recoveries and the recovery ratios (21/IS) are summarized in Supplementary Table S2. Data analysis was based on UV detection at 220 nm.

[2] abbreviates: read-out: pKi ± SEM (converted).

Each structure is given as a SMILES string. Where two headings read alike, the source gives them in different places.

T1 sequence (P30989 whole entry): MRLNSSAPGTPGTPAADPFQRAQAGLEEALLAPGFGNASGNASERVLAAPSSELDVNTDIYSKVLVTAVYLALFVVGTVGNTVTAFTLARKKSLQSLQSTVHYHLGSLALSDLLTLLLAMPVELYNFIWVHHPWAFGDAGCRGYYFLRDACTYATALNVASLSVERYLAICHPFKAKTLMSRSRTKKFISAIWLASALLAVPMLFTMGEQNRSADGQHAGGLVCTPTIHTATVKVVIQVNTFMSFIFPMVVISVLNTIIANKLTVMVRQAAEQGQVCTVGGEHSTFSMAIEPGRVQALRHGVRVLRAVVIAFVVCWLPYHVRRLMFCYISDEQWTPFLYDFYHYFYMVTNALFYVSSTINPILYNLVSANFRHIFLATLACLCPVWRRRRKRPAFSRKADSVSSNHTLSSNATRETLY

`CC(C)C[C@H](NC(=O)[C@@H](NC(=O)[C@H](Cc1ccc(O)cc1)NC(=O)[C@@H]1CCCN1C(=O)[C@H](CCCNC(=N)N)NC(=O)[C@@H](N)CCCNC(=N)NC(=O)NCCCCNC(=O)CCc1cn([C@@H]2O[C@H](CF)[C@@H](O)[C@H](O)[C@H]2O)nn1)C(C)(C)C)C(=O)O` [Compound 20, H-(N^ω-{N-[4-(3-{1-[6-deoxy-6-fluoro-β-D-glucopyranosyl]-1H-1,2,3-triazol-4-yl}propanoyl)aminobutyl]aminocarbonyl})Arg-Arg-Pro-Tyr-2-tert-butyl-Gly-Leu-OH tris(hydrotrifluoroacetate)]: the Ki on hNTS1R (mean, read-out: Ki (converted)) is 2.5 nM. Besides, the remaining at 10 min, 100 µM in series [1] (pH 7.4, 10 min) is 78 ± 1%. In series [1], the remaining at 1 h, 100 µM came to 6.4 ± 0.1% and the remaining at 24 h, 100 µM is under 1%.

As to `CN[C@@H](CCCNC(=N)N)C(=O)N[C@@H](CCCNC(=N)NC(=O)NCCCCc1cn([C@@H]2O[C@H](CF)[C@@H](O)[C@H](O)[C@H]2O)nn1)C(=O)N1CCC[C@H]1C(=O)N[C@@H](Cc1ccc(O)cc1)C(=O)N[C@H](C(=O)N[C@@H](CC(C)C)C(=O)O)C(C)(C)C` [Compound 13, N^α-(N^α-methylarginyl)-{N^ω-[N-(4-{1-[6-deoxy-6-fluoro-β-D-glucopyranosyl]-1H-1,2,3-triazol-4-yl}butyl)aminocarbonyl]}Arg-Pro-Tyr-2-tert-butyl-Gly-Leu-OH tris(hydrotrifluoroacetate)], the Ki result at hNTS1R (mean) is “one-digit nanomolar range”. The Ki at hNTS1R (mean, read-out: Ki (converted)) is 6.2 nM. Moreover, the remaining at 2 h, 100 µM in series [1] (pH 7.4, 2 h) is over 99%. For the same compound, in series [1], the remaining at 6 h, 100 µM is over 99%; the remaining at 24 h, 100 µM is over 99%; the remaining at 48 h, 100 µM turned out to be 96 ± 1%.

Take `C#CCCCCNC(=O)NC(=N)NCCC[C@H](N)C(=O)N[C@@H](CCCNC(=N)N)C(=O)N1CCC[C@H]1C(=O)N[C@@H](Cc1ccc(O)cc1)C(=O)N[C@H](C(=O)N[C@@H](CC(C)C)C(=O)O)C(C)(C)C` [Compound 7, H-(N^ω-5-hexynylaminocarbonyl)Arg-Arg-Pro-Tyr-2-tert-butyl-Gly-Leu-OH tris(hydrotrifluoroacetate)]: the Ki is 4.6 nM on hNTS1R (mean, read-out: Ki (converted)) and 4.37 nM at hNTS1R (setting [2]).

`C#CCCCCNC(=O)NC(=N)NCCC[C@H](NC(=O)[C@H](CCCNC(=N)N)NC)C(=O)N1CCC[C@H]1C(=O)N[C@@H](Cc1ccc(O)cc1)C(=O)N[C@H](C(=O)N[C@@H](CC(C)C)C(=O)O)C(C)(C)C` [Compound 9, N^α-(N^α-methylarginyl)-N^ω-(5-hexynylaminocarbonyl)Arg-Pro-Tyr-2-tert-butyl-Gly-Leu-OH tris(hydrotrifluoroacetate)]: the Ki is 7.7 nM on hNTS1R (mean, read-out: Ki (converted)) and 7.41 nM on hNTS1R (setting [2]).

In the case of `CN[C@@H](CCCNC(=N)NC(=O)NCCCCN)C(=O)N[C@@H](CCCNC(=N)N)C(=O)N1CCC[C@H]1C(=O)N[C@@H](Cc1ccc(O)cc1)C(=O)N[C@H](C(=O)N[C@@H](CC(C)C)C(=O)O)C(C)(C)C` [Compound 16, N^α-methyl-N^ω-[(4-aminobutyl)aminocarbonyl]Arg-Arg-Pro-Tyr-2-tert-butyl-Gly-Leu-OH tetrakis(hydrotrifluoroacetate)], the Ki at hNTS1R (mean, read-out: Ki (converted)) is 2.8 nM. In series [1], the remaining at 1 h, 100 µM is over 99%; the remaining at 6 h, 100 µM is over 99%; the remaining at 24 h, 100 µM was over 99%; the remaining at 48 h, 100 µM was over 99%.

For the compound `C#CCCCCNC(=O)NC(=N)NCCC[C@H](NC(=O)[C@@H](N)CCCNC(=N)N)C(=O)N1CCC[C@H]1C(=O)N[C@@H](Cc1ccc(O)cc1)C(=O)N[C@H](C(=O)N[C@@H](CC(C)C)C(=O)O)C(C)(C)C` [Compound 8, H-Arg-(N^ω-5-hexynylaminocarbonyl)Arg-Pro-Tyr-2-tert-butyl-Gly-Leu-OH tris(hydrotrifluoroacetate)], the “pKi ± SEM” value at hNTS1R is 8.03 ± 0.03. Also, at hNTS1R (mean, read-out: Ki (converted)), the Ki was 9.4 nM.
